From publication PMC11050067, “Development of a Novel, Potent, and Selective Sialyltransferase Inhibitor for Suppressing Cancer Metastasis” (International Journal of Molecular Sciences, 2024)

Experiments:
ST3GAL3 = molecular target: T1, ST3GAL3 (Homo sapiens, UniProt Q11203); test: phosphatase-coupled sialyltransferase activity assay (EA002 kit) with recombinant enzyme; assay type: biochemical
T1 construct: recombinant Human ST3GAL3 (R&D systems #10554-GT)
T1 sequence (Q11203 1-375): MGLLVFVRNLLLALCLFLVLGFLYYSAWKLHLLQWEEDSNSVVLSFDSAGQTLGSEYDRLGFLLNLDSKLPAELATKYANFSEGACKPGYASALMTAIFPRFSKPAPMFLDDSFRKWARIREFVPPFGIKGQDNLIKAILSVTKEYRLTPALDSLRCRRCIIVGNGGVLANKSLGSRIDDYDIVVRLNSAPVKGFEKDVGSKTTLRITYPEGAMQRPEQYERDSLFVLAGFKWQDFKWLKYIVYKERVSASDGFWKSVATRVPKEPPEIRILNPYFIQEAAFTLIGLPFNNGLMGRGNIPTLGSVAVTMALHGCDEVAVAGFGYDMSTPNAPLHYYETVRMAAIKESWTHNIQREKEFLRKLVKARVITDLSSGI

ST6GAL1 = molecular target: T2, ST6GAL1 (Homo sapiens, UniProt P15907); test: HPLC assay of sialylation of Galβ[…]-4GlcNAc with CMP-Neu5Ac by recombinant enzyme; assay type: biochemical
T2 construct: recombinant Human ST6GAL1 (R&D systems #7620-GT)
T2 sequence (P15907 27-406): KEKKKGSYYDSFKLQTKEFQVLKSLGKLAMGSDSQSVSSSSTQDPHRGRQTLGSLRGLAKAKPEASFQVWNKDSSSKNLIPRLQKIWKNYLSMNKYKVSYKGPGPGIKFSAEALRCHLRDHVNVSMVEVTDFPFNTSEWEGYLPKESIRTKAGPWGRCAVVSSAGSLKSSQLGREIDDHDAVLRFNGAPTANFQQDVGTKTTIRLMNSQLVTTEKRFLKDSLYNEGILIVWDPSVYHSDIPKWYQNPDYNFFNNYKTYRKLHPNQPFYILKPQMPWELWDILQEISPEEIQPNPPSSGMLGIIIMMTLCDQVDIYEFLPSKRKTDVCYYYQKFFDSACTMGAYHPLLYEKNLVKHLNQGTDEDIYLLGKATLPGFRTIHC

IC50 (ST3GAL3): 9.45 ± 0.11 µM
IC50 (ST6GAL1): 7.76 ± 0.06 µM
SMILES: C[C@H](CCC(=O)OCCOCCOCCN=[N+]=[N-])C1CCC2C3CC[C@@H]4C[C@H](NC(=O)[C@H](CC(=O)O)Nc5ccc([N+](=O)[O-])c6nonc56)CC[C@]4(C)C3CC[C@@]21C (some centres unmarked) [FCW393]
